Measured values taken from patent publication US20050101595A1, “N-containing cycloalkyl-substituted amino-thiazole derivatives and pharmaceutical compositions for inhibiting cell proliferation and methods for their use” (PFIZER INC., priority 2003, published 2005).
Counter-ions that a name gives are not always drawn. Like-named read-outs stand apart in the source and are kept apart here.

Legend:
[1] = target: human CDK4 and genetically truncated (1-264) cyclin D3 (Homo sapiens, UniProt P11802); experiment: Inhibition of CDK4/Cyclin D Retinoblastoma Kinase Activity; assay type: biochemical; conditions: for Ki: apparent Ki, CDK4/truncated cyclin D3, Rb fragment substrate, 25 μM ATP
Procedure, shortened: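 The enzyme complex (5 nM), expressed in co-infected insect cells, was incubated with recombinant Rb fragment, 25 μM radiolabelled ATP and 2% DMSO at 30 °C. Reactions were stopped with EDTA after 20 minutes, or 60 minutes for tight-binding inhibitors. Apparent Ki values came from competitive inhibition fits.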

CDK2/Cyclin A = CDK2/Cyclin A (Homo sapiens, UniProt P24941); experiment: Inhibition of CDK2/Cyclin A Retinoblastoma Kinase Activity; assay type: biochemical; conditions: for Ki: apparent Ki, CDK2/proteolyzed cyclin A, Rb fragment substrate, 25 μM ATP; for CDK2 % Inhibition At 0.03 μM: Table 2
Procedure, shortened: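 CDK2 (10 or 19 nM), insect-cell expressed, gel-filtration purified with truncated cyclin A; Rb fragment substrate; 25 μM ATP; 10 mM HEPES pH 7.4, 10 mM MgCl2; 30° C, 60 or 75 min; EDTA stop; phosphocellulose/nitrocellulose capture, phosphorimager. % inhibition vs DMSO control, no-enzyme background subtracted.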

HCT-116 cell line = experiment: Inhibition of cell growth, tetrazolium salt (MTT) assay; assay type: cell-based; conditions: for IC50: Homo sapiens, HCT-116, 120 h, MTT, three to five days, read-out: HCT-116 IC50; for HCT-116 % Inhibition at 0.25 μM: 0.25 μM compound
Procedure, shortened: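 Cells in McCoy's 5A medium were left 4 h, then given graded compound concentrations in 0.5% (v/v) DMSO and incubated three to five days at 37° C (5% CO2). MTT was added to 0.2 mg/mL for 4 h more; DMSO-solubilized formazan was read at 540 nm against 0.5% DMSO-only controls.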

Chain of human CDK4 and genetically truncated (1-264) cyclin D3 (P11802 whole entry, the tested form may be a part): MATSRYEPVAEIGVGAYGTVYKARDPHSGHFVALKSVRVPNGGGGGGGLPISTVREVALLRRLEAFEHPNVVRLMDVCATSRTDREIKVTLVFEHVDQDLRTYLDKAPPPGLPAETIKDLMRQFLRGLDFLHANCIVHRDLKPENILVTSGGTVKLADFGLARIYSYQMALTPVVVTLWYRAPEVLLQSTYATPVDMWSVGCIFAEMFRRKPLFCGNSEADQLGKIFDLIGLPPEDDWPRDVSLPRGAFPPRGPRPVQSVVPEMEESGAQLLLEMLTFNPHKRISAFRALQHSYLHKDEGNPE
Chain of human CDK4 and genetically truncated (1-264) cyclin D3 (P30281 1-264 partner): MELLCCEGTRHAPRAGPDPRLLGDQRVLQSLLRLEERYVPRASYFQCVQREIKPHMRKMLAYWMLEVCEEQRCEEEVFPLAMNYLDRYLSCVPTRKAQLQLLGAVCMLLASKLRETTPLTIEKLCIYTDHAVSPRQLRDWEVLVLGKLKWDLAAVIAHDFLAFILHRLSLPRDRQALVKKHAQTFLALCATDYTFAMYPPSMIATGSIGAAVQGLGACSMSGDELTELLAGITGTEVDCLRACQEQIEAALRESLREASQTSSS

Row | Ki [1] | Ki (CDK2/Cyclin A) | IC50 (HCT-116 cell line; first HCT-116 column (c4)) | IC50 (HCT-116 cell line; second HCT-116 column (c5)) | CDK4 % Inhibition at 0.03 μM ([1]; at 0.03 μM) | CDK2 % Inhibition at 0.03 μM (CDK2/Cyclin A; at 0.03 μM) | SMILES | HCT-116 % Inhibition at 0.1 μM (HCT-116 cell line; HCT-116 cells, at 0.1 μM) | HCT-116 5 Inhibition at 0.25 μM (HCT-116 cell line; HCT-116 cells) | also measured
1 | 0.39 nM | 0.88 nM | 58 nM | 400 nM | – | – | CN1CCC[C@H]1COc1ccc(S(=O)(=O)N2CCC(Nc3nc(N)c(C(=O)c4c(F)cccc4F)s3)CC2)cn1 [Example H12, 1-(4-Amino-2-{1-[6-(1-methyl-pyrrolidin-2S-ylmethoxy)-pyridine-3-sulfonyl]-piperidin-4-ylamino}-thiazol-5-yl)-1-(2,6-difluoro-phenyl)-methanone] | – | – | –
2 | – | – | – | – | 89% | 65% | C=Cc1ccc(C(=O)N2CCC(Nc3nc(N)c(C(=O)c4c(F)cccc4F)s3)CC2)cc1 [Example R156] | 0% | 43 | –
3 | 14 nM | 2.7 nM | 570 nM | 1200 nM | – | – | Nc1nc(NC2CCN(S(N)(=O)=O)CC2)sc1C(=O)c1c(F)cccc1F [Example E4, 4-[4-Amino-5-(2,6-difluoro-benzoyl)-thiazol-2-ylamino]-piperidine-1-sulfonic acid amide] | – | – | –
4 | – | – | – | – | 35% | 29% | Nc1nc(NC2CCN(C(=O)c3ccc(Oc4cc(Cl)cc(Cl)c4)o3)CC2)sc1C(=O)c1c(F)cccc1F [Example R69] | 0% | 41 | –
5 | 51 nM | 150 nM | > 5000 nM | > 5000 nM | – | – | Cn1cncc1C(=O)N1CCC(Nc2nc(N)c(C(=O)c3c(F)cccc3F)s2)CC1 [Example C15, 1-(4-Amino-2-{1-[1-(3-methyl-3H-imidazol-4-yl)-methanoyl]-piperidin-4-ylamino}-thiazol-5-y)-1-(2,6-difluoro-phenyl)-methanone] | – | – | –
6 | – | – | – | – | −27% | −13% | Nc1nc(NC2CCN(C(=O)C3(c4ccccc4)CCCC3)CC2)sc1C(=O)c1c(F)cccc1F [Example R95] | 0% | 38 | –
7 | 2.7 nM | 1.5 nM | > 500 nM | > 500 nM | – | – | Nc1nc(NC2CCN(S(=O)(=O)c3ccc(Sc4ccccn4)nc3)CC2)sc1C(=O)c1c(F)cccc1F [Example L2, 1-(4-Amino-2-{1-[6-(pyridin-2-ylsulfanyl)-pyridine-3-sulfonyl]-piperidin-4-ylamino}-thiazol-5-yl)-1-(2,6-difluoro-phenyl)-methanone Dihydrochloride.] | – | – | –
8 | – | – | – | – | – | – | Nc1nc(NC2CCN(C(=O)OCc3ccccc3)CC2)sc1C(=O)c1c(F)cccc1F [Example Q6] | – | – | CDK4 % Inhibition at 0.03 μM ([1]; 0.03 μM compound, Table 4): 24%; CDK2 % Inhibition at 0.03 μM (CDK2/Cyclin A; 0.03 μM compound, Table 4): −32%; HCT-116 % Inhibition at 0.1 μM (HCT-116 cell line; 0.1 μM compound, HCT-116, Table 4): 9%; HCT-116 % Inhibition at 0.25 μM (HCT-116 cell line; HCT-116, Table 4): 38%
9 | – | – | – | – | 28% | 26% | CCC(C(=O)N1CCC(Nc2nc(N)c(C(=O)c3c(F)cccc3F)s2)CC1)c1ccccc1 (stereo not shown) [Example R163] | 0% | 44 | –
10 | – | – | – | – | 9% | −31% | Nc1nc(NC2CCN(C(=O)C(=O)c3c[nH]c4ccccc34)CC2)sc1C(=O)c1c(F)cccc1F [Example R5] | 13% | 49 | –
11 | – | – | – | – | – | – | Nc1nc(NC2CCN(C(=O)Nc3ccc(Cl)cc3)CC2)sc1C(=O)c1c(F)cccc1F [Example O20] | – | – | CDK4 % Inhibition at 0.03 μM ([1]; 0.03 μM compound, Table 2): 7%; CDK2 % Inhibition At 0.03 μM (CDK2/Cyclin A; 0.03 μM compound): 26%; HCT-116 % Inhibition at 0.25 μM (HCT-116 cell line; HCT-116, Table 2): 15%
12 | 2.1 nM | 6.2 nM | 190 nM | 1400 nM | – | – | Nc1nc(NC2CCN(S(=O)(=O)CCN3CC=CCC3)CC2)sc1C(=O)c1c(F)cccc1F [Example K32, (4-Amino-2-{1-[2-(3,6-dihydro-2H-pyridin-1-yl)-ethanesulfonyl]-piperidin-4-ylamino}-thiazol-5-yl)-(2,6-difluoro-phenyl)-methanone Trifluoroacetic Acid Salt.] | – | – | –
13 | – | – | – | – | – | – | CCCCCCNC(=O)N1CCC(Nc2nc(N)c(C(=O)c3c(F)cccc3F)s2)CC1 [Example O58] | – | – | CDK4 % Inhibition at 0.03 μM ([1]; 0.03 μM compound, Table 2): 6%; CDK2 % Inhibition At 0.03 μM (CDK2/Cyclin A; 0.03 μM compound): 34%; HCT-116 % Inhibition at 0.25 μM (HCT-116 cell line; HCT-116, Table 2): 42%
14 | 0.67 nM | 1.5 nM | 70 nM | > 500 nM | – | – | CN(C)CCCSc1ccc(S(=O)(=O)N2CCC(Nc3nc(N)c(C(=O)c4c(F)cccc4F)s3)CC2)cn1 [Example L5, 1-(4-Amino-2-{1-[6-(3-dimethylamino-propylsulfanyl)-pyridine-3-sulfonyl]-piperidin-4-ylamino}-thiazol-5-yl)-1-(2,6-difluoro-phenyl)-methanone Dihydrochloride.] | – | – | –
15 | – | – | – | – | 73% | 55% | COc1cc(OC)cc(C(=O)N2CCC(Nc3nc(N)c(C(=O)c4c(F)cccc4F)s3)CC2)c1 [Example R137] | 0% | 38 | –
